# Experimental data as given in patent US20070292451A1, “Medical herb composition for promoting the growth of hair A mammal and the manufacturing method thereof” (Brion Research Institute of Taiwan, priority 2006, published 2007).
# Test system: humans
# Test: Oral administration of the medical herb composition to human volunteers with hair shedding
# Type: in vivo
# Conditions: Example 14: person
# Description: The administered dose is based on body weight. For dogs and cats, the dose was 1-1.5 g/5 kg/day. […] because dogs and cats have higher metabolism rate than humans. […] The forehead hairline moved forward after one month, and generally the hair became thick. […] The efficacy of the composition is clearly identified by comparing the photo taken at the 37th day after the first administration of the composition (FIG. 8(b)) to that taken at 5th day (FIG. 8(a)). […] The test was performed on a volunteer, a person ([…]). […] They were diagnosed to suffer from Male Pattern Baldness. […] The efficacy of the composition is clearly identified by comparing the photo taken after the administration of the composition for 1 month (FIG. 9(b)) to that taken before the administration of the composition (FIG. 9(a)). […] In addition, after continuous administration of the composition for 1 month, their eyesight was 150 degree less than that before the administration of the composition.
compound,measurement,value
CC(C)(C)NC(=O)[C@H]1CC[C@H]2[C@@H]3CC[C@H]4NC(=O)C=C[C@]4(C)[C@H]3CC[C@]12C [Finasteride],effect on Male Pattern Baldness (earlier treatment of the subject),the effect was poor
